Test results as given in ChEMBL document CHEMBL1201862, “PubChem BioAssay data set” (2004).
Calls of active or inactive are those of the source.

Assays:
[1] = cells
[2] = molecular target: T1, Mucolipin-3 (Homo sapiens, UniProt Q8TDD5); test: Dose response cell-based high-throughput screening assay for agonists of the transient receptor potential channel ML3 (TRPML3). [Related pubchem assays: 1526, 1424, 1448 ]; assay type: functional
T1 sequence (Q8TDD5 whole entry): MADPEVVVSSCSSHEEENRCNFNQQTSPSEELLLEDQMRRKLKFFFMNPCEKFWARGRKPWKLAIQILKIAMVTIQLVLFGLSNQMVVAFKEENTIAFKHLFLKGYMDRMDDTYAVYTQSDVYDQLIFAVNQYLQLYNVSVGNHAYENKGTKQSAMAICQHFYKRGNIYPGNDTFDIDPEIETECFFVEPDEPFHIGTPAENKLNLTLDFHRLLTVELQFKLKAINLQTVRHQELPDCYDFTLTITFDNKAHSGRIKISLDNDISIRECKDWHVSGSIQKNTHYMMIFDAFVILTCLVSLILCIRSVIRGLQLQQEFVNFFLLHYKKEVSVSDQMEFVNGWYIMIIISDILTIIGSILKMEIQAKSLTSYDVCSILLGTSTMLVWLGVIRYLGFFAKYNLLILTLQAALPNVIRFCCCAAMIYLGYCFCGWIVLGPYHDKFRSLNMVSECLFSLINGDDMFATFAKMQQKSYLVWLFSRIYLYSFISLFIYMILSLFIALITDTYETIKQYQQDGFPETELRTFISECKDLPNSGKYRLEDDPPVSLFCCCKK

[3] = molecular target: Ion channel NompC (Danio rerio, UniProt Q7T1G6); test: Fluorescence counterscreen assay for TRPML3 agonists: dose response cell-based high-throughput screening assay to identify agonists of the transient receptor potential channel N1 (TRPN1). [Related pubchem assays: 1526, 1424, 1448 ]; assay type: functional
Sequence of Ion channel NompC (Q7T1G6 whole entry): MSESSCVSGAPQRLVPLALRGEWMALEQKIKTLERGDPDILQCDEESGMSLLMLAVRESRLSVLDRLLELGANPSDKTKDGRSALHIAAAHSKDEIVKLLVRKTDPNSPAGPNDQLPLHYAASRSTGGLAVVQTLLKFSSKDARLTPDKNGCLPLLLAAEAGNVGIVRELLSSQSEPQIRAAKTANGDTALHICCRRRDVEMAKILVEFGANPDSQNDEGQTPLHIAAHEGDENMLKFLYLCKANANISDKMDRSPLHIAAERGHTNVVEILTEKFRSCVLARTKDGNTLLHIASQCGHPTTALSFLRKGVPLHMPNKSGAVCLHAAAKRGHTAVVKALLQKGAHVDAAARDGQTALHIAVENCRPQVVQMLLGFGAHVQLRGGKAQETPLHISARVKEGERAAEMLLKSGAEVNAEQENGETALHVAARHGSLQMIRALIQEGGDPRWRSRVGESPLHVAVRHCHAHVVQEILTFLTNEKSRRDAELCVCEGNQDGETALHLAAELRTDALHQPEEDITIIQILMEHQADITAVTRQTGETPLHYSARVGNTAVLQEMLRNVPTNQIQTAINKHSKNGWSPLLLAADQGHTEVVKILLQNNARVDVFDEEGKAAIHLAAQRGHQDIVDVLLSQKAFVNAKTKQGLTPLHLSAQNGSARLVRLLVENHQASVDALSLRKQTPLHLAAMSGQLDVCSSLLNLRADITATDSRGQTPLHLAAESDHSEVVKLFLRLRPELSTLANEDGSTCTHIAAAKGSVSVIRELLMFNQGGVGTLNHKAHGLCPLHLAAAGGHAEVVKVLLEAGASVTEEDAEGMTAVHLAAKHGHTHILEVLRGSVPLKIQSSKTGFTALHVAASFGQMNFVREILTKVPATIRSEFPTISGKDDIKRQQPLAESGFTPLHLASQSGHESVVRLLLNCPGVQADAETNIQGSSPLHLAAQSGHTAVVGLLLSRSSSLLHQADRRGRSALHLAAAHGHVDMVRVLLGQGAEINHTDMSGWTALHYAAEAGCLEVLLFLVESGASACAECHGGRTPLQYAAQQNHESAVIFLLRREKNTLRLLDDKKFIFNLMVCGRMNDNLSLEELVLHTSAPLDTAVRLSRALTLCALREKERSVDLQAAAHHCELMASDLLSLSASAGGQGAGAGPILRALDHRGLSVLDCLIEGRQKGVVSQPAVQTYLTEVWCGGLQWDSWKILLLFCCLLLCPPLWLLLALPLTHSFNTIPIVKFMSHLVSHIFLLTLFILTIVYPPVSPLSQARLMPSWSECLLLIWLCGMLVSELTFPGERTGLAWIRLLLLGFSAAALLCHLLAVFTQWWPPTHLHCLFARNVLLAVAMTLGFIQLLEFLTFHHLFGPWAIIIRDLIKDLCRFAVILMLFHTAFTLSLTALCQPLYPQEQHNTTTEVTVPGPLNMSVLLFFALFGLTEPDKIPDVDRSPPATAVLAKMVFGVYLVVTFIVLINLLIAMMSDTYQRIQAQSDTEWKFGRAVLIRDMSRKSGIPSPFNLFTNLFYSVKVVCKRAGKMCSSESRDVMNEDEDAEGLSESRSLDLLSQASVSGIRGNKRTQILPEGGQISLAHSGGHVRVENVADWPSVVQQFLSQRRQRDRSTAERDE

[4] = M. tuberculosis H37Rv growth inhibitors, H37Rv strain (AID 1626); assay type: functional
[5] = molecular target: NAD-dependent protein deacylase sirtuin-5, mitochondrial (Homo sapiens, UniProt Q9NXA8); test: sirtuin-5 deacylation blockers, concentration series – biochemical, fluorescence imaging, cherry-pick, set 5, dose response (AID 720591);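 further: desuccinylation of succinyl peptide AMC substrate read as fluorescence after trypsin release; potency of inhibitors that lower fluorescence and may act on trypsin instead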
Sequence of NAD-dependent protein deacylase sirtuin-5, mitochondrial (Q9NXA8 whole entry): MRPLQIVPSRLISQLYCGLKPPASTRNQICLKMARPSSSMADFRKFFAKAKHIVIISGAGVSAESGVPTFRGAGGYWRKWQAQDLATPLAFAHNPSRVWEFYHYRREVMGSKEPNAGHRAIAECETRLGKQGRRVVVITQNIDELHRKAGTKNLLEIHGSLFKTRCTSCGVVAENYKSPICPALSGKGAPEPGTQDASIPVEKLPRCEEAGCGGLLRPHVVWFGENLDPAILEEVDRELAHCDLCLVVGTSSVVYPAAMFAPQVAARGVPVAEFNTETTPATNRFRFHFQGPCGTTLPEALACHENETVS

[6] = viability loss in THP-1 monocytes – THP-1 cells, cytotoxicity control for Vif-APOBEC3G degradation inhibitor project, dose response (AID 1117359); assay type: functional; settings: THP-1
[7] = viability of uninfected HEp-2 cells – cell-based, HTS, cytotoxicity control for RSV inhibitor project, dose response (AID 2410); assay type: functional; settings: human respiratory syncytial virus
[8] = test system: Streptococcus sp. 'group A'; test: Streptococcus pyogenes SK(-)GAS viability under kanamycin – luminescence, BacTiterGlo, confirmation, counter-screen for streptokinase expression inhibitor project, dose response (AID 1900); assay type: functional, organism-based
[9] = molecular target: T2, Streptokinase A (Streptococcus pyogenes serotype M1, UniProt P10520); test: viability-normalized secreted streptokinase activity reduction – plasminogen activation absorbance, OD405, dose response (AID 1914); assay type: functional, Streptococcus pyogenes M1 GAS;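 further: secreted streptokinase activity via plasminogen activation per viability signal from cell pellet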
T2 sequence (P10520 whole entry): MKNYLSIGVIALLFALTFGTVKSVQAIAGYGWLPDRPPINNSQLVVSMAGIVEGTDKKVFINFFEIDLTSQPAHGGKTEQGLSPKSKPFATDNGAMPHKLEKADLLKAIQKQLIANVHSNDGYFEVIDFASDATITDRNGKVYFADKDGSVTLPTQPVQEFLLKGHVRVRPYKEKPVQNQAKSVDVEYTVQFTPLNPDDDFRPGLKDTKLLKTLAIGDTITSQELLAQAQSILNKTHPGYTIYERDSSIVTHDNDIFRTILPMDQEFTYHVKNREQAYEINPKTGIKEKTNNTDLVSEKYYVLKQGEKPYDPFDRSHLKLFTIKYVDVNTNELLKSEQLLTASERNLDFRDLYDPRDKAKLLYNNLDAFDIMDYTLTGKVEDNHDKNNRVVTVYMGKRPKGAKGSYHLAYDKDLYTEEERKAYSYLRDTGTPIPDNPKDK

[10] = test system: Streptococcus; test: GAS UMAA2166 growth inhibition – luminescence, BacTiterGlo, counter-screen for streptokinase expression inhibitor project, dose response (AID 1915); assay type: functional, organism-based;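 further: potency for reduction of bacterial viability or growth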
[11] = cells; assay type: functional, cell-based
[12] = molecular target: T3, Trace amine-associated receptor 1 (Homo sapiens, UniProt Q96RJ0); test: Fluorescence-based cell-based high throughput dose response assay to identify agonists of the human trace amine associated receptor 1 (TAAR1).; assay type: functional
T3 sequence (Q96RJ0 whole entry): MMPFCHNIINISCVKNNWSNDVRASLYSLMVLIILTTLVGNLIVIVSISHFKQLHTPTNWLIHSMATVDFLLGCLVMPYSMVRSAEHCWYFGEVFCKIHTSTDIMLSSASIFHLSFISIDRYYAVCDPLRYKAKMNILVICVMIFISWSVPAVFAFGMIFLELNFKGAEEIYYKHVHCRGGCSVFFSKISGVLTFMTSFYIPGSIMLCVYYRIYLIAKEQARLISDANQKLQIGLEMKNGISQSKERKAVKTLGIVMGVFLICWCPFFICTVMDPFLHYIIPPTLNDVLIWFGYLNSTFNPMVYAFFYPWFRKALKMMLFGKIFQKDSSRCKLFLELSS

[13] = molecular target: T3, Trace amine-associated receptor 1; test: Counterscreen for agonists of the human trace amine associated receptor 1 (hTAAR1): Fluorescence-based cell-based high throughput dose response assay to identify hTAAR1 agonist that also desensitize TAAR1 receptor response.; assay type: functional
[14] = cells; assay type: functional, cell-based; remark: listed apart in the source
[15] = molecular target: Glyceraldehyde-3-phosphate dehydrogenase (Homo sapiens, UniProt P04406)
Sequence of Glyceraldehyde-3-phosphate dehydrogenase (P04406 whole entry): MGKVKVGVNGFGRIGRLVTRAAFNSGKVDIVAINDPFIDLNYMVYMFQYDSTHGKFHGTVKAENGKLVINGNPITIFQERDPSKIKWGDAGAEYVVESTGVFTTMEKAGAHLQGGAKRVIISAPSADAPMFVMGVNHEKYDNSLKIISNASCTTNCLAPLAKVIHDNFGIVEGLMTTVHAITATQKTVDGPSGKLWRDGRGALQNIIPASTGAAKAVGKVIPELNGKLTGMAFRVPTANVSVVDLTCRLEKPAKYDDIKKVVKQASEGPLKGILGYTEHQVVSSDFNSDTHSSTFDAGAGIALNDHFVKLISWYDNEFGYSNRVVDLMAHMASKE

[16] = Luminescence Cell-Based Dose Confirmation HTS to Identify Activators of 5'UTR Stem-Loop Driven Alpha-Synuclein mRNA Translation in H4 Neuroglioblastoma Cells. [Related pubchem assays: 1829 (Project Summary), 1814 (Primary HTS)]; assay type: functional
[17] = Luminescence Cell-Based Dose Response HTS to Identify Activators of Luciferase Translation or Activity in H4 […] Cells. [Related pubchem assays: 1829 (Project Summary), 1814 (Primary HTS)]; assay type: functional
[18] = test system: H4; test: Luminescence Cell-Based Dose Response HTS to Identify Activators of 5'UTR Stem-Loop Driven Prion Protein mRNA Translation in H4 Neuroglioblastoma Cells. [Related pubchem assays: 1829 (Project Summary), 1814 (Primary HTS)]; assay type: functional; settings: Homo sapiens
[19] = test system: Vero; test: cells; assay type: functional, cell-based; settings: Chlorocebus sabaeus
[20] = molecular target: T4, Mannose-6-phosphate isomerase (Homo sapiens, UniProt P34949); test: MPI inhibition at elevated mannose 6-phosphate – biochemical, fluorescence intensity, high mannose 6-phosphate, primary screen (AID 1220)
T4 sequence (P34949 whole entry): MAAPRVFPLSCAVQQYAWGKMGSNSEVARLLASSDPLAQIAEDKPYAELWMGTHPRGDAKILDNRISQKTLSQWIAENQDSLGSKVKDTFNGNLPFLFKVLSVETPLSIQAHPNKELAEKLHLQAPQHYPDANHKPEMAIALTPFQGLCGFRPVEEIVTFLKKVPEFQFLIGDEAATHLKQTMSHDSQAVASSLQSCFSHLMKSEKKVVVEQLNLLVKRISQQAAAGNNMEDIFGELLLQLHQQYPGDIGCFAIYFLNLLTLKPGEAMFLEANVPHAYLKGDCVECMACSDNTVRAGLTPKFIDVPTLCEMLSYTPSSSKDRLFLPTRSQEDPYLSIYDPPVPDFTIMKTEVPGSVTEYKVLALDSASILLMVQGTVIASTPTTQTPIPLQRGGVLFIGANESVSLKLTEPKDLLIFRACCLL

[21] = molecular target: T5, Leucine aminopeptidase (Plasmodium falciparum 3D7, UniProt Q8IL11); test: P. falciparum M17LAP inhibitors, primary screen, biochemical, fluorogenic H-Leu-NHMec substrate, 1536-well (AID 1619); assay type: functional
T5 sequence (Q8IL11 whole entry): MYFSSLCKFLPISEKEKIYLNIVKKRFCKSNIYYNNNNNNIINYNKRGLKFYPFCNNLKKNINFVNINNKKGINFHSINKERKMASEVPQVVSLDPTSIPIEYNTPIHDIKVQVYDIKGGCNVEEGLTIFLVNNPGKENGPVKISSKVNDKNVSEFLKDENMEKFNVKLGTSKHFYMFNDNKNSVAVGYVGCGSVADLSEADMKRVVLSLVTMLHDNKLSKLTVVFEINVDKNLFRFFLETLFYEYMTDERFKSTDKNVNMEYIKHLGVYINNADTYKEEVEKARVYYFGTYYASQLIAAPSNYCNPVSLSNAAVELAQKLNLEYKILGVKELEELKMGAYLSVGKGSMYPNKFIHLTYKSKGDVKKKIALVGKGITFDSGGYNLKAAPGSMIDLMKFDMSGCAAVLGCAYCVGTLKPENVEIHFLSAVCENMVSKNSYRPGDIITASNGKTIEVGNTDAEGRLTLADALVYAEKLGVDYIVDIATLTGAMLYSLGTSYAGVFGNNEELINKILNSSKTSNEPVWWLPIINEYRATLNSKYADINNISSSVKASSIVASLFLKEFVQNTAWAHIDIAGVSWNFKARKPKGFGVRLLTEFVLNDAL

[22] = molecular target: FAD-linked sulfhydryl oxidase ALR (Homo sapiens, UniProt P55789); test: ALR-catalysed DTT oxidation blockers – biochemical, H2O2 detection, luminescence, cherry-pick, dose response (AID 493248)
Sequence of FAD-linked sulfhydryl oxidase ALR (P55789 whole entry): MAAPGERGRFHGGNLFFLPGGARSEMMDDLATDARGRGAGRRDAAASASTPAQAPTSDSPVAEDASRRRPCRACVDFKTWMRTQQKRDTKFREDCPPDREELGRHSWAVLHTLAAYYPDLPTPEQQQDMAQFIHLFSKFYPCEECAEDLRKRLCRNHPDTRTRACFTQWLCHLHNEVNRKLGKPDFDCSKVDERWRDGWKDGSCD

[23] = molecular target: T6, DNA repair protein RAD52 homolog (Homo sapiens, UniProt P43351); assay type: functional, biochemical
T6 sequence (P43351 whole entry): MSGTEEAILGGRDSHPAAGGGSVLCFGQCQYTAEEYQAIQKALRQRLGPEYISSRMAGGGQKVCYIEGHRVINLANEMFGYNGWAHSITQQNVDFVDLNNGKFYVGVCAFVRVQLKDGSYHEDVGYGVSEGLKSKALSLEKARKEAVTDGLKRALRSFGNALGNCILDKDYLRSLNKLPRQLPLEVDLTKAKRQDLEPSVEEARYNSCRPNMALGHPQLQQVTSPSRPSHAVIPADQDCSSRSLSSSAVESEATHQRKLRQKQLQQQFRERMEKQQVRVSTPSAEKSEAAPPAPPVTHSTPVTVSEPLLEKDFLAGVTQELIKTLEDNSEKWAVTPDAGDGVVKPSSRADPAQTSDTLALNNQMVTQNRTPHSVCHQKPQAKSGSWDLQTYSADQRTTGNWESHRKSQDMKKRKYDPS

[24] = molecular target: T7, Calpain-2 catalytic subunit (Sus scrofa, UniProt P43367); test: m-calpain protease blockers, concentration series – biochemical, fluorogenic peptide substrate, dose response (AID 1420); assay type: functional
T7 sequence (P43367 whole entry): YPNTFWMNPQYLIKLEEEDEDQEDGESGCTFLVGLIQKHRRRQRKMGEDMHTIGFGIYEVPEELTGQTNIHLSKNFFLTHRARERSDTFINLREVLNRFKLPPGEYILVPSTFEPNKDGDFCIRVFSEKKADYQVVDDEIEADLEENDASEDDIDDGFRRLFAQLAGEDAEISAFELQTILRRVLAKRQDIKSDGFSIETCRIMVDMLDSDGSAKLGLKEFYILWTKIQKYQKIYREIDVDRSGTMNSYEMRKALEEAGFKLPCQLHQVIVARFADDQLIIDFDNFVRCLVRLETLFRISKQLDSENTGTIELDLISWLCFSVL

COC(=O)c1ccc2[nH]ccc2c1
IC50 [1]: 42.7 µM (active)

CC1=CC(C)(C)N(C(=O)CN2C(=O)c3ccccc3C2=O)c2ccccc21
EC50 [2]: 1.45 µM (active) | EC50 [3]: > 29.9 µM (not active)

O=C(COC(=O)c1ccccc1Br)Nc1ccccc1F
IC50 [4]: > 100 µM (active)

Oc1nc(Cc2ccc(F)cc2)nc2scc(-c3ccc(F)cc3)c12
AC50 [5]: 18 µM (active)

Cn1cccc1/C=C1/C(=O)NC(=O)N(Cc2ccccc2)C1=O
CC50 [6]: > 40 µM (active)

C/C(N)=C(/C#N)C(=O)COC(=O)c1ccccc1Cc1ccccc1
CC50 [7]: 32.2 µM (active) | IC50 [1]: 45 µM (active)

Oc1ccccc1-c1nc2c3ccccc3c3ccccc3c2[nH]1
CC50 [7]: 15.3 µM (active) | EC50 [8]: 2.55 µM (active) | EC50 [9]: 4.11 µM (active) | EC50 [10]: 12 µM (active) | IC50 [1]: 11 µM (active)

O=C(/C=C/C(=O)N1CCc2ccccc2C1)N1CCc2ccccc2C1
IC50 [11]: > 29.9 µM (inactive) | EC50 [12]: 1.14 µM (active) | IC50 [13]: 4.67 µM (active) | EC50 [14]: > 29.9 µM (inactive)

COc1cccc(N2C(=O)C(Cl)=C(N3CCN(C/C=C/c4ccccc4)CC3)C2=O)c1
IC50 [15]: > 50 µM (inconclusive)

COc1ccc(OC(=O)NCCc2ccccc2)cc1
EC50 [16]: 29 µM (active) | EC50 [17]: 49 µM (active) | EC50 [18]: 16.1 µM (active) | IC50 [11]: > 29.9 µM (inactive) | EC50 [12]: 0.535 µM (active) | IC50 [13]: > 29.9 µM (inactive) | EC50 [14]: > 29.9 µM (inactive)

Cc1cc(NC(=O)C(C)SCC(=O)N(Cc2ccccc2)c2ccccc2)no1 (stereo unspecified)
CC50 [7]: 29.9 µM (active) | IC50 [19]: > 25 µM (active) | IC50 [1]: 39.6 µM (active)

CN(C)C(CNC(=O)CCNC(=O)c1ccc(Cl)cc1)c1ccco1 (stereo unspecified)
AC50 [5]: > 30 µM (inactive)

Nc1nnc(SCc2ccc(F)cc2)s1
IC50 [4]: > 100 µM (active)

Cc1c(C(=O)NC(C)C)oc2c1-c1n[nH]cc1CC2
IC50 [20]: > 50 µM (not active)

Cc1ccc(S(=O)(=O)NC2CCCCC2)c2nsnc12
EC50 [2]: 8.34 µM (active) | EC50 [3]: > 29.9 µM (not active)

CC1CCN(CC(=O)Nc2ccc(N3CCCCCC3)cc2)CC1
IC50 [21]: 13 µM (active) | AC50 [22]: 0.448 µM (active) | AC50 [23]: 18 µM (active)

CCOc1cc(CNc2ccc(O)cc2)cc(Br)c1OCc1ccccc1F
IC50 [24]: 9.81 µM (not active) | CC50 [6]: 27.8 µM (active)

COc1ccccc1CCNC(=O)C(=O)NCC1OCCN1S(=O)(=O)c1ccc(C)cc1 (stereo unspecified)
IC50 [11]: > 29.9 µM (inactive) | EC50 [12]: 2.51 µM (active) | IC50 [13]: 7.91 µM (active) | EC50 [14]: > 29.9 µM (inactive)

COC(=O)[C@H](Cc1c[nH]c2ccccc12)NC(=O)NCc1ccc(OC)c(OC)c1
AC50 [5]: > 30 µM (inactive)

O/N=C/c1ccc(-c2cc(Cl)ccc2Cl)o1
IC50 [4]: > 100 µM (active)

Cc1cc(C)c(S(=O)(=O)Nc2ccccc2-c2ccccc2)c(C)c1
EC50 [2]: 5.34 µM (active) | EC50 [3]: > 29.9 µM (not active)
